# Reference: patent US10208030B2, “GPR119 agonist compounds” (Mankind Pharma Ltd., priority 2016, dated 2019)
# Target: T1, hGPR119 (Homo sapiens, UniProt Q8TDV5)
# T1 construct: expressed in transfected cells; host or cells: CHO cells (CHO-hGPR119)
# T1 sequence (Q8TDV5 1-335): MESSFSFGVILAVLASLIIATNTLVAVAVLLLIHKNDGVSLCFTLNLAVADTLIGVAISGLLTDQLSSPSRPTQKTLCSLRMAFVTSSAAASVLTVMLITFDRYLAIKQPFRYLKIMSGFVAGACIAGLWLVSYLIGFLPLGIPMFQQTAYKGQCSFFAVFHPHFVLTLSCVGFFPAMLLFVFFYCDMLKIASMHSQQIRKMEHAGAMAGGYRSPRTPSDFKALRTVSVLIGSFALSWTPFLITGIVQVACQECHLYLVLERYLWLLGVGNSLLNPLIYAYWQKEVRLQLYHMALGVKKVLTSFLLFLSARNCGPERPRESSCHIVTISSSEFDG
# Test: In vitro cyclic AMP assay (Cisbio HTRF) in CHO-hGPR119 cells
# Format: cell-based
# Settings: 1 h, cAMP, 1 μM, 60 min, read-out: Induction (% induction at 1 μM)
# Procedure: cAMP measurements were done using Cisbio dynamic 2 HTRF kit according to the manufacturer's protocol. Briefly, CHO-hGPR119 cells were plated at a cell density of 5000 cells/well/5 μl into a white small volume 384 well plate. The final concentrations of IBMX and DMSO used were 1 mM and 0.5% respectively. Cells were treated with various concentrations of the test compound for 60 min at room temperature. Cells were lysed by buffer containing Anti-cAMP antibody and d2-cAMP reagents and incubated for 1 hour at room temperature. HTRF was measured at 337 nm excitation and emission wavelengths of 665 nm and 620 nm on a microplate reader (Flurostar, BMG Labtech). Graphpad prism software was utilized for EC50 determinations.
row,SMILES,activation at 1 µM
1,"CC(C)c1noc(C2CCN(c3nn4cc(-c5ccc(S(C)(=O)=O)cc5)nc4s3)CC2)n1 [Compound 1016, 3-isopropyl-5-(1-(6-(4-(methylsulfonyl)phenyl)imidazo[2,1-b][1,3,4]thiadiazol-2-yl)piperidin-4-yl)-1,2,4-oxadiazole]",54%
2,"CC(C)c1noc(N2CCC(Oc3nn4cc(-c5ccc(S(C)(=O)=O)cc5)nc4s3)CC2)n1 [Compound 1018, 3-isopropyl-5-(4-((6-(4-(methylsulfonyl)phenyl)imidazo[2,1-b][1,3,4]thiadiazol-2-yl)oxy)piperidin-1-yl)-1,2,4-oxadiazole]",20%
3,"CC(C)OC(=O)N1CCC(c2nn3cc(-c4ccc(S(C)(=O)=O)cc4)nc3s2)CC1 [Compound 1024, isopropyl 4-(6-(4-(methylsulfonyl)phenyl)imidazo[2,1-b][1,3,4]thiadiazol-2-yl)piperidine-1-carboxylate]",38%
4,"CC(C)OC(=O)N1CCC(c2cn3nc(-c4ccc(S(C)(=O)=O)cc4)sc3n2)CC1 [Compound 1030, isopropyl 4-(2-(4-(methylsulfonyl)phenyl)imidazo[2,1-b][1,3,4]thiadiazol-6-yl)piperidine-1-carboxylate]",26%
5,"CC(C)c1noc(N2CCC(c3cn4nc(-c5ccc(S(C)(=O)=O)cc5)sc4n3)CC2)n1 [Compound 1032, 3-isopropyl-5-(4-(2-(4-(methylsulfonyl)phenyl)imidazo[2,1-b][1,3,4]thiadiazol-6-yl)piperidin-1-yl)-1,2,4-oxadiazole]",41%
6,"CN(C)C(=O)N1CCC(c2nn3cc(-c4ccc(S(C)(=O)=O)cc4)nc3s2)CC1 [Compound 1033, N,N-dimethyl-4-(6-(4-(methylsulfonyl)phenyl)imidazo[2,1-b][1,3,4]thiadiazol-2-yl)piperidine-1-carboxamide]",2%
7,"COCCNC(=O)c1ccc(-c2nn3cc(C4CCN(C(=O)OC(C)C)CC4)nc3s2)cc1 [Compound 1035, isopropyl 4-(2-(4-((2-methoxyethyl)carbamoyl)phenyl)imidazo[2,1-b][1,3,4]thiadiazol-6-yl)piperidine-1-carboxylate]",21%
8,"CC(C)c1noc(C2CCN(c3nn4cc(-c5ccc(C(=O)N(C)C)cc5)nc4s3)CC2)n1 [Compound 1036, 4-(2-(4-(3-isopropyl-1,2,4-oxadiazol-5-yl)piperidin-1-yl)imidazo[2,1-b][1,3,4]thiadiazol-6-yl)-N,N-dimethylbenzamide]",24%
9,"CS(=O)(=O)c1ccc(OCc2cn3nc(C4CCN(Cc5ccccc5)CC4)sc3n2)cc1 [Compound 1038, 2-(1-benzylpiperidin-4-yl)-6-((4-(methylsulfonyl)phenoxy)methyl)imidazo[2,1-b][1,3,4]thiadiazole]",6%
10,"COCCNC(=O)c1ccc(-c2cn3nc(N4CCC(c5nc(C(C)C)no5)CC4)sc3n2)cc1 [Compound 1039, 4-(2-(4-(3-isopropyl-1,2,4-oxadiazol-5-yl)piperidin-1-yl)imidazo[2,1-b][1,3,4]thiadiazol-6-yl)-N-(2-methoxyethyl)benzamide]",11%
11,"CC(C)c1noc(C2CCN(c3nn4c(Cl)c(-c5ccc(S(C)(=O)=O)cc5)nc4s3)CC2)n1 [Compound 1044, 5-(1-(5-chloro-6-(4-(methylsulfonyl)phenyl)imidazo[2,1-b][1,3,4]thiadiazol-2-yl)piperidin-4-yl)-3-isopropyl-1,2,4-oxadiazole]",71%
12,"CS(=O)(=O)c1ccc(-c2cn3nc(N4CCC(c5nc(C6CC6)no5)CC4)sc3n2)cc1 [Compound 1045, 3-cyclopropyl-5-(1-(6-(4-(methylsulfonyl)phenyl)imidazo[2,1-b][1,3,4]thiadiazol-2-yl)piperidin-4-yl)-1,2,4-oxadiazole]",22%
13,"CC(C)c1noc(C2CCN(c3nn4cc(-c5ccc(C#N)cc5)nc4s3)CC2)n1 [Compound 1046, 4-(2-(4-(3-isopropyl-1,2,4-oxadiazol-5-yl)piperidin-1-yl)imidazo[2,1-b][1,3,4]thiadiazol-6-yl)benzonitrile]",26%
14,"CC(C)c1noc(N2CCC(C(C)Oc3nn4cc(-c5ccc(C#N)cc5)nc4s3)CC2)n1 (centres unmarked) [Compound 1047, 4-(2-(1-(1-(3-isopropyl-1,2,4-oxadiazol-5-yl)piperidin-4-yl)ethoxy)imidazo[2,1-b][1,3,4]thiadiazol-6-yl)benzonitrile]",51%
15,"CC(C)c1noc(N2CCC(C(C)Oc3nn4cc(-c5ccc(C(=O)N(C)C)cc5)nc4s3)CC2)n1 (centres unmarked) [Compound 1048, 4-(2-(1-(1-(3-isopropyl-1,2,4-oxadiazol-5-yl)piperidin-4-yl)ethoxy)imidazo[2,1-b][1,3,4]thiadiazol-6-yl)-N,N-dimethylbenzamide]",56%

# Results, then the compound that gave them:
row,activation at 1 µM,SMILES
1,3%,"CCc1cnc(N2CCC(c3nsnc3C(=O)Nc3ccc(S(C)(=O)=O)cc3F)CC2)nc1 [Compound 1015, 4-(1-(5-ethylpyrimidin-2-yl)piperidin-4-yl)-N-(2-fluoro-4-(methylsulfonyl)phenyl)-1,2,5-thiadiazole-3-carboxamide]"
2,39%,"CC(C)c1noc(N2CCC(COc3nn4cc(-c5ccc(S(C)(=O)=O)cc5)nc4s3)CC2)n1 [Compound 1017, 3-isopropyl-5-(4-(((6-(4-(methylsulfonyl)phenyl)imidazo[2,1-b][1,3,4]thiadiazol-2-yl)oxy)methyl)piperidin-1-yl)-1,2,4-oxadiazole]"
3,11%,"CS(=O)(=O)c1ccc(-c2cn3nc(C4CCN(Cc5ccccc5)CC4)sc3n2)cc1 [Compound 1019, 2-(1-benzylpiperidin-4-yl)-6-(4-(methylsulfonyl)phenyl)imidazo[2,1-b][1,3,4]thiadiazole]"
4,1%,"CC(C)OC(=O)N1CCN(c2nn3cc(-c4ccc(S(C)(=O)=O)cc4)nc3s2)CC1 [Compound 1020, isopropyl 4-(6-(4-(methylsulfonyl)phenyl)imidazo[2,1-b][1,3,4]thiadiazol-2-yl)piperazine-1-carboxylate]"
5,16%,"CC(C)OC(=O)N1CCC(N(C)c2nn3cc(-c4ccc(S(C)(=O)=O)cc4)nc3s2)CC1 [Compound 1022, isopropyl 4-(methyl(6-(4-(methylsulfonyl)phenyl)imidazo[2,1-b][1,3,4]thiadiazol-2-yl)amino)piperidine-1-carboxylate]"
6,0%,"CCc1cnc(N2CCC(Nc3nn4cc(-c5ccc(S(C)(=O)=O)cc5)nc4s3)CC2)nc1 [Compound 1023, N-(1-(5-ethylpyrimidin-2-yl)piperidin-4-yl)-6-(4-(methylsulfonyl)phenyl)imidazo[2,1-b][1,3,4]thiadiazol-2-amine]"
7,11%,"CN(c1nn2cc(-c3ccc(S(C)(=O)=O)cc3)nc2s1)C1CCN(C(N)=O)CC1 [Compound 1025, 4-(methyl(6-(4-(methylsulfonyl)phenyl)imidazo[2,1-b][1,3,4]thiadiazol-2-yl)amino)piperidine-1-carboxamide]"
8,41%,"CC(C)c1noc(N2CCC(c3nn4cc(-c5ccc(S(C)(=O)=O)cc5)nc4s3)CC2)n1 [Compound 1027, 3-isopropyl-5-(4-(6-(4-(methylsulfonyl)phenyl)imidazo[2,1-b][1,3,4]thiadiazol-2-yl)piperidin-1-yl)-1,2,4-oxadiazole]"
9,9%,"CC(C)c1noc(N2CCC(N(C)c3nn4cc(-c5ccc(S(C)(=O)=O)cc5)nc4s3)CC2)n1 [Compound 1029, N-(1-(3-isopropyl-1,2,4-oxadiazol-5-yl)piperidin-4-yl)-N-methyl-6-(4-(methylsulfonyl)phenyl)imidazo[2,1-b][1,3,4]thiadiazol-2-amine]"
10,1%,"CS(=O)(=O)c1ccc(-c2cn3nc(C4CCN(S(C)(=O)=O)CC4)sc3n2)cc1 [Compound 1031, 6-(4-(methylsulfonyl)phenyl)-2-(1-(methylsulfonyl)piperidin-4-yl)imidazo[2,1-b][1,3,4]thiadiazole]"
11,53%,"CC(C)OC(=O)N1CCC(c2cn3nc(-c4ccc(C(=O)N(C)C)cc4)sc3n2)CC1 [Compound 1034, isopropyl 4-(2-(4-(dimethylcarbamoyl)phenyl)imidazo[2,1-b][1,3,4]thiadiazol-6-yl)piperidine-1-carboxylate]"
12,4%,"CC(C)c1noc(C2CCN(c3nn4cc(COc5ccc(S(C)(=O)=O)cc5)nc4s3)CC2)n1 [Compound 1040, 3-isopropyl-5-(1-(6-((4-(methylsulfonyl)phenoxy)methyl)imidazo[2,1-b][1,3,4]thiadiazol-2-yl)piperidin-4-yl)-1,2,4-oxadiazole]"
13,2%,"CC(C)c1noc(N2CCC(Oc3nn4cc(COc5ccc(S(C)(=O)=O)cc5)nc4s3)CC2)n1 [Compound 1042, 3-isopropyl-5-(4-((6-((4-(methylsulfonyl)phenoxy)methyl)imidazo[2,1-b][1,3,4]thiadiazol-2-yl)oxy)piperidin-1-yl)-1,2,4-oxadiazole]"
14,55%,"CCCc1cnc(N2CCC(C(C)Oc3nn4cc(-c5ccc(C(=O)N(C)C)cc5)nc4s3)CC2)nc1 (centres unmarked) [Compound 1049, N,N-dimethyl-4-(2-(1-(1-(5-propylpyrimidin-2-yl)piperidin-4-yl)ethoxy)imidazo[2,1-b][1,3,4]thiadiazol-6-yl)benzamide]"
